{
  "source": "patent US20240352412A1",
  "about": "“METHODS AND SYSTEMS FOR EXTENDED CULTURE OF HUMAN BLASTOIDS TO POST-IMPLANTATION STAGES ON 3D MATRICES” (Washington University, priority 2023, published 2024)",
  "key": {"[1]": {"tested_on": "WIBR3 OCT4-GFP naïve hPSCs", "experiment": "Blastoid formation (cavitation) from 5i/L/A naïve hPSCs in Aggrewells", "type": "cell-based, human", "conditions": "for rate of cavitation on omission of the component from the blastoid media: component omitted/removed (Conditions 2-4), D7", "procedure": "Naïve hPSCs were dissociated with Accutase for 5 minutes at 37° C. Single cell dissociate naïve stem cells and inactivate accutase enzymes with fibroblast medium. Centrifuge this suspension 1000 rpm for 5 minutes. Remove supernatant and wash once with DMEM/F12, centrifuge 1000 rpm for 5 minutes. Aspirate supernatant and resuspend in 2 mL of 5i/L/A medium. Remove iMEFs from the cell suspension by incubation on gelatin-coated plates for 30-45 minutes at 37° C. 5% CO2. Collect cells and count cells to plate 100,000 cells per 24 well Aggrewell (StemCell Technologies) well. Coat the aggrewells with Anti-adherence solution (StemCell Technologies) for 10 minutes at room temperature. Wash wells once with DMEM/F12, then add 1 mL of 5i/L/A medium. Add naïve stem cells to Aggrewells, 100,000 cells per 500 μL, total medium should be 1.5 mL per well. Centrifuge the plate 1000 rpm for 2 minutes for equal distribution of cell number per microwell. Incubate at 37° C. 5% CO2 and 5% 02 for one day. […]\nCavitation rate was determined by counting individual aggregates at 7 days of blastoid growth in at least 3 24-well wells per condition. Tile scan images of the entire well were stitched together and aggregates vs. cavitated aggregates were manually counted in ImageJ. […] Significance determined by a 1-way ANOVA with multiple comparisons. *p<0.05, **p<0.01.\nBlastoid size was determined with ImageJ software by drawing a circle around the entire blastoid, and diameters determined by a single line drawn across the widest apparent part of the blastoid (day 7 n=1901; day 8 n=18). Inner cell mass size was determined by utilizing the OCT4-GFP channel and manually drawing around the brightest region of GFP+ areas (control n=152 blastoids; —CHIR n=130). Significance determined with Welch's t-test, ****p<0.0001."}, "[2]": {"tested_on": "3D-cultured human blastoids (WIBR3 OCT4-GFP background)", "experiment": "Post implantation WNT modulation of 3D-cultured blastoids", "type": "cell-based", "conditions": "for OCT4-GFP reporter area (ratio of OCT4-GFP area: total blastoid area; EPI compartment) / OCT4-GFP signal intensity / invasive trophoblast projections / overall blastoid size (area): 2 μM in N2B27+E2, D8 to D14, 3D ECM, analysed at D14, vs control; for CTB shell: 2 μM, 6 days of treatment, D14 of 3D culture", "text": "Blastoids can be transferred on either day 7 or day 8 of growth. Due to the inaccessibility of commercially available extracellular matrix products during the experimentation phases of this project, multiple matrices were utilized in this study-hESC qualified growth factor-reduced Matrigel (Corning), hESC qualified growth factor reduced Geltrex (Gibco), and Cultrex UltriMatrix reduced growth factor basement membrane extract (R&D, BME001). […] Matrices were thawed on ice and kept cold until crosslinking was desired. Matrices mixed together (Matrigel/geltrex) were mixed following thawing and plated into ibidi microwells (120 μL/well) (ibidi, 80826) or alternatively 96 well plates (40 μL/well). Matrices were solidified at 37° C. for 30 minutes. Wash matrices 2 times with DMEM/F12 before adding blastoids. Add N2B27+10 nM estradiol without antibiotics to each well. Plate desired numbers of blastoids to each well (3-5 in an ibidi microwell, 1-2 in a 96 well plate). Place the plate in the incubator (37° C., 5% CO2, 5% 02) for 24 hours. Replace media daily with N2B27+10 nM estradiol without antibiotics. If blastoids are added at 7 days, the following day they may be loosely attached. Wait approximately 28-30 hours following seeding to ensure blastoids are well anchored before changing medium. Polar TE side attaches and the ICM expands compared to the day before when properly attached. On the following day (day 9) the TE collapses. Migratory EVT emerge at day 13. Maintaining proper pH is important for blastoids post implantation, the medium should be at pH=7.2-7.4 by pre-equilibration in the incubator or use freshly made N2B27 that has not oxidized too excessively (media should be pink/orange in color, never purple). WIBR3 OCT4-GFP blastoids were grown to 7 days in blastoid generating conditions (see above) and blastoids with localized single ICM, continuous trophectoderm, and with a round blastocoel cavity were chosen by hand and plated upon a pre-formed 3D matrix (Cultrex UltriMatrix) formed with a 96 well plate (40 μL of Cultrex per well). 2 blastoids per well were plated among 10 wells for each condition in N2B27+1 mM Na Pyruvate+10 nM Estradiol (E2). Blastoids were allowed to attach for approximately 24-30 hours in the incubator (5% CO2, 5% O2, 37° C., 100% humidity). When blastoids attached, TE collapsed, and ICM expanded, medium was changed to N2B27+1 mM Na Pyruvate+10 nM E2+2 μM XAV939 or +2 μM CHIR99021. Media was changed daily and grown in a 37° C., 5% CO2, 5% O2 incubator. Blastoids were fixed in 4% paraformaldehyde as described above on day 14 of total blastoid growth."}},
  "note": "“Also recorded” adds a separate entry of the source.",
  "data": [
    {"molecule": "LIF: recombinant human leukemia inhibitory factor (PeproTech)", "values": [
      {"measurement": "rate of cavitation on omission of the component from the blastoid media", "setting": "[1]", "value": "without adversely affecting the rate of cavitation"}
    ]},
    {"molecule": "Cc1c[nH]c(-c2cnc(NCCNc3ccc(C#N)cn3)nc2-c2ccc(Cl)cc2Cl)n1", "note": "[CHIR99021]", "values": [
      {"measurement": "OCT4-GFP reporter area (ratio of OCT4-GFP area: total blastoid area; EPI compartment)", "setting": "[2]", "value": "reduced ratio of OCT4-GFP+ cells"},
      {"measurement": "OCT4-GFP signal intensity", "setting": "[2]", "value": "diminished intensity of OCT4-GFP reporter activity"},
      {"measurement": "invasive trophoblast projections", "setting": "[2]", "value": "significantly fewer invasive trophoblast projections"},
      {"measurement": "overall blastoid size (area)", "setting": "[2]", "value": "larger; also recorded: increased"},
      {"measurement": "CTB shell", "setting": "[2]", "value": "expansion of the CTB shell"},
      {"measurement": "TE expansion (ICM:TE ratio based on OCT4-GFP reporter activity) on omission of the component", "setting": "[1]; component omitted (Condition 2)", "value": "specifically promotes TE expansion"},
      {"measurement": "rate of cavitation on omission of the component from the blastoid media", "setting": "[1]", "value": "enhanced the rate of cavitation"}
    ]},
    {"molecule": "Oc1nc(-c2ccc(C(F)(F)F)cc2)nc2c1CSCC2", "note": "[XAV939]", "values": [
      {"measurement": "OCT4-GFP reporter area (ratio of OCT4-GFP area: total blastoid area; EPI compartment)", "setting": "[2]", "value": "notable expansion"},
      {"measurement": "OCT4-GFP signal intensity", "setting": "[2]", "value": "increase in signal intensity"},
      {"measurement": "invasive trophoblast projections", "setting": "[2]", "value": "significantly fewer invasive trophoblast projections"},
      {"measurement": "overall blastoid size (area)", "setting": "[2]", "value": "reduced"},
      {"measurement": "CTB shell", "setting": "[2]", "value": "reduction of the CTB shell"}
    ]}
  ]
}
